Results reported in US12521356B2, “Compositions and methods for treating pain, inflammation, infection, malaria, and sepsis” (Duke University, priority 2018, dated 2026).

Columns and labels:
pMΦ = assay: ELISA of cytokines in zymosan-stimulated pMΦ cultures; type: cell-based, mouse
Protocol: FIG. 14A-FIG. 14C. NPD1 regulates cytokine expression in cultured macrophages via GPR37. ELISA showing the expression of pro-inflammatory cytokine IL-1β (FIG. 14A) and anti-inflammatory cytokines IL-10 (FIG. 14B) and TGF-β (FIG. 14C) in pMΦ from WT and Gpr37^−/− mice. pMΦ were stimulated with 100 μg/mL zymosan for 24 h. Note that NPD1 differentially regulates the expression of pro- and anti-inflammatory cytokines. *P<0.05; n=3 cultures/group. All the data are mean±SEM.
ELISA. Mouse ELISA kits for IL-1β, TGF-β and IL10 were purchased from R&D system (Minneapolis, MN, Catalog: MLB00C for IL-1β, Catalog: MB100B for TGF-β, and Catalog: M1000B for IL-10). ELISA was performed using culture medium and hindpaw skin tissues. Cultured cells and tissues were homogenized in a lysis buffer containing protease and phosphatase inhibitors. For each Elisa assay, 50 μg proteins or 50 μL of culture medium were used. ELISA was conducted according to manufacturer's instructions. The standard curve was included in each experiment.
Peritoneal macrophage culture. Peritoneal macrophages were collected by peritoneal lavage with 10 ml warm PBS containing of 1 mM EDTA. Cells were incubated in DMEM supplemented with 10% FBS at 37° C. for 2 h in petri dish and washed with PBS to eliminate non-adherent cells. The adherent cells were used as peritoneal macrophages. Peritoneal macrophages were used after 3 days of culture.

CHEM23 = target: T1, CHEM23 (Homo sapiens, UniProt Q99788); assay: Dot blot binding assay, positive control CHEM23
T1 sequence (Q99788 1-373): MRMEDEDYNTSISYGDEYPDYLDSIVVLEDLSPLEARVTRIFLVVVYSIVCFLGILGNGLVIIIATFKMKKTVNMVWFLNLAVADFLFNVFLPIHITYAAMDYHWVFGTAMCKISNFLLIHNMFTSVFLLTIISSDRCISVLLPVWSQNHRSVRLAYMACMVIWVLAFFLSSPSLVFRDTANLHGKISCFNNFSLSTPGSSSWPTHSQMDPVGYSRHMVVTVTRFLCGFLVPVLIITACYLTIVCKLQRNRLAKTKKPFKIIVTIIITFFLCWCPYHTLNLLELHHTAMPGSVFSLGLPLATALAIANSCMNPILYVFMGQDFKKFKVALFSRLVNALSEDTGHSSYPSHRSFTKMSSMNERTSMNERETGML
Protocol: (§1) Lipids overlay assay. Lipids membrane coating and protein overlay assay was conducted as previously described (Ji R R, et al. Science 2016, 354, 572-577). Ethanol and chloroform soluble fatty acids were directly loaded on hydrophobic PVDF membrane (Bio-Rad). The fatty acids (NPD1, RvD1, RvE1, and DHA) coated membranes were dried and blocked with 1% BSA. The cell lysate and purified GPR37-V5 protein were incubated with the coating membrane for 2 h, and the binding was detected by anti-V5 tagged antibody (mouse, 1:1000, Thermo scientific, Catalog: 46-0705).
(§2) HEK cell culture and transfection. HEK293 flip-in cell line was purchased from Duke Cell Culture Facility. Cells were cultured in high glucose (4.5 g/L) Dulbecco's Modified Eagle's Medium containing 10% (v/v) fetal bovine serum (Gibco). Transfection (2 μg cDNA) was performed with Lonza electroporation (Lonza) at 70% confluency and the transfected cells were cultured in the same growth medium for 48 h before use. The hGPR37-V5 pLenti304 plasmids were obtained from DNASU (Tempe, AZ), and hGPR32, hChemR23 and hALX pcDNA3 plasmids were provided by Dr. Serhan from Harvard Medical School, Boston.
(§3) To determine whether NPD1 and TX14 bind to GPR37, we conducted dot blot assay by coating the blots with different concentrations of NPD1 and TX14 and included RvE1 as a control. […]

GPR32 = target: T2, GPR32 (Homo sapiens, UniProt O75388); assay: Dot blot binding assay, positive control GPR32
T2 construct: host or cells: HEK293 flip-in cells
Protocol: as §1, §2, §3

[1] = pMΦ cultures, zymosan 100 μg/mL for 24 h

T2 sequence (O75388 whole entry): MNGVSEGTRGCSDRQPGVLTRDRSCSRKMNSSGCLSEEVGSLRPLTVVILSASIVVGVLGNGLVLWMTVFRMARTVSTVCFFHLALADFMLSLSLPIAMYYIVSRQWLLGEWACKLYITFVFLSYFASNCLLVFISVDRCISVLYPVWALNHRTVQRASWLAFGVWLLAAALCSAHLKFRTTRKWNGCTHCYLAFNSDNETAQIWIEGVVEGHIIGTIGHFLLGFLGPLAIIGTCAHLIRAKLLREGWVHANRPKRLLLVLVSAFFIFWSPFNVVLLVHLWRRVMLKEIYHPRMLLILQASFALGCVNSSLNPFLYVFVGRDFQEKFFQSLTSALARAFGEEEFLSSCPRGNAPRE

Compound: CC/C=C\C[C@H](O)\C=C/C=C/C=C/[C@H](O)C/C=C\C/C=C\CCC(=O)O [NPD1, neuroprotectin D1]
- IL-1β levels (pMΦ; [1]): suppressed
- IL-10 levels (pMΦ; [1]): increased
- TGF-β levels (pMΦ; [1]): increased
- dependence of cytokine effects on GPR37 (pMΦ; pMΦ from WT and Gpr37−/− mice): required GPR37

Compound: CC[C@@H](O)/C=C/C=C\C[C@@H](O)/C=C/C=C/C=C\[C@@H](O)CCCC(=O)O [RvE1]
- binding to CHEM23 (CHEM23): strong binding

Compound: CC/C=C\C[C@H](O)/C=C/C=C\C=C\C=C\[C@@H](O)[C@@H](O)C/C=C\CCC(=O)O [RvD1]
- binding to GPR32 (GPR32): strong binding
